The values that follow come from patent publication US6136825A, “Sulfonamide compounds having 5-HT receptor activity” (Knoll Aktiengesellschaft, priority 1996, dated 2000).

Each structure is given as a SMILES string. Counter-ions that a name gives are not always drawn.

The target of assay [1] is T1, D2-like dopamine receptors (Rattus norvegicus, UniProt P61169).
T1 construct: Striatal tissue from the brains of male Charles River CD rats; from tissue; host or cells: rat striatum (male Charles River CD rats), crude membrane pellet
The assay is described as follows: inhibition of tritiated (S)-sulpiride binding to D2-like dopamine receptors, rat striatal tissue. More on the design: species or system male Charles River CD rats. The conditions noted are these: 4° C., 40 minutes, pH 7.7. As for the experimental part:
Striatal tissue from the brains of male Charles River CD rats weighing between 140-250 g were homogenised in ice-cold 50 mM Tris-HCl buffer (pH 7.7 when measured at 25° C.) and centrifuged at 40,000 g for 10 minutes. The pellet was resuspended in Tris salts buffer (50 mM Tris-HCl buffer containing 120 mM NaCl, 5 mM KCl, 2 mM CaCl2 and 1 mM MgCl2 with the addition of 6 mM ascorbic acid; pH 7.7 when measured at 25° C.), and again centrifuged at 40,000 g for 10 minutes. The final pellet was stored at -80° C. Before each test the pellet was resuspended in Tris salts buffer (equivalent to 2 mg wet weight of tissue/ml). Aliquots (720 μl; equivalent to 1.44 mg wet weight of tissue/tube) of this suspension were then added to tubes containing the ligand (40 μl; 1 nM) and Tris salts buffer (40 μl; total binding) or spiroperidol (40 μl; 10 nM; non-specific binding) or test compound (40 μl; at a single concentration of 10^-6 M or at 6 concentrations ranging from 10^-11 -10^-4 M). The ligand was tritiated (S)-sulpiride and the mixture was incubated at 4° C. for 40 minutes before the incubation was terminated by rapid filtration.
The filters were washed with ice-cold Tris-HCl buffer and dried. The filters were punched out in to vials, scintillation fluid added and were left for about 20 hours before being counted by scintillation spectrophotometry. The percentage displacement of specific binding of the tritiated ligand was calculated for the single concentration (10^-6 M) of test compound. Displacement curves were then produced over a range of concentrations for those compounds which displaced ≥50% of specific binding of the tritiated ligand at 10^-6 M. The concentration which gave a 50% inhibition of specific binding (IC50) was obtained from the curve. The inhibition coefficient Ki was then calculated using the formula [formula] in which [ligand] is the concentration of the tritiated ligand used and KD is the equilibrium dissociation constant for the ligand.

A further assay addresses T2, 5-HT1A (Rattus norvegicus, UniProt P19327).
T2 construct: Hippocampal tissue from the brains of male Charles River CD rats; from tissue; host or cells: rat hippocampus (male Charles River CD rats), crude membrane pellet
T2 sequence (P19327 1-422): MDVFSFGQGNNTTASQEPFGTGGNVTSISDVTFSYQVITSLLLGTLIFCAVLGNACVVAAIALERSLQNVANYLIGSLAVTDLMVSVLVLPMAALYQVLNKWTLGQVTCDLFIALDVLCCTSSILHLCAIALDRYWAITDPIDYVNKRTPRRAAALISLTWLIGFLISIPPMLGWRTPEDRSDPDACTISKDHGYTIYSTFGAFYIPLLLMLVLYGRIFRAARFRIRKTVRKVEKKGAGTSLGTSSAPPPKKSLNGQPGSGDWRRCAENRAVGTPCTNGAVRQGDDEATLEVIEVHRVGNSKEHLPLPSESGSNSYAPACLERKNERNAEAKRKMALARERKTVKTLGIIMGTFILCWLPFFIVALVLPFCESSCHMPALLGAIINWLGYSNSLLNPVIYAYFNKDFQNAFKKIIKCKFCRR
The assay is described as follows: inhibition of tritiated ligand ([3H]8-OH-DPAT) binding to 5-HT1A receptors, rat hippocampal tissue. Conditions: for Ki: 25° C., 30 minutes, pH 7.7; for inhibition at 1 µM: at 10^-6 M, read-out: % displacement of specific binding, 5-HT1A. On the set-up: species or system male Charles River CD rats. As to the method:
Hippocampal tissue from the brains of male Charles River CD rats weighing between 150-250 g were homogenised in ice-cold 50 mM Tris-HCl buffer (pH 7.7) when measured at 25° C., 1:40 w/v) and centrifuged at 30,000 g at 4° C. for 10 minutes. The pellet was rehomogenised in the same buffer, incubated at 37° C. for 10 minutes and centrifuged at 30,000 g at 4° C. for 10 minutes. The final pellet was resuspended in 50 mM Tris-HCl buffer (pH 7.7) containing 4 mM CaCl2, 0.1% L-ascorbic acid and 10 μM pargyline hydrochloride (equivalent to 6.25 mg wet weight of tissue/ml) and used immediately in the binding assay. Aliquots (400 μl; equivalent to 2.5 mg wet weight of tissue/tube) of this suspension were added to tubes containing the ligand (50 μl; 2 nM) and distilled water (50 μl; total binding) or 5-HT (50 μl; 10 μM; non-specific binding) or test compound (50 μl; at a single concentration of 10^-6 M or at 10 concentrations ranging from 10^-11 -10^-3 M). The ligand was [^3 H]8-hydroxy-2-(dipropylamino)tetralin ([^3 H]8-OH-DPAT) and the mixture was incubated at 25° C. for 30 minutes before the incubation was terminated by rapid filtration.
The filters were washed with ice-cold Tris-HCl buffer and dried. The filters were punched out into vials, scintillation fluid added and radioactivity determined by liquid scintillation counting. The percentage displacement of specific binding of the tritiated ligand was calculated for the single concentration (10^-6 M) of test compound. Displacement curves were then produced for those compounds which displaced ≥50% of specific binding of the tritiated ligand at 10^-6 M using a range of concentrations of the compound. The concentration which gave 50% inhibition of specific binding (IC50) was obtained from the curve. The inhibition coefficient Ki was then calculated using the formula [formula] in which [ligand] is the concentration of the tritiated ligand used and KD Is the equilibrium dissociation constant for the ligand.

T1 sequence (P61169 whole entry): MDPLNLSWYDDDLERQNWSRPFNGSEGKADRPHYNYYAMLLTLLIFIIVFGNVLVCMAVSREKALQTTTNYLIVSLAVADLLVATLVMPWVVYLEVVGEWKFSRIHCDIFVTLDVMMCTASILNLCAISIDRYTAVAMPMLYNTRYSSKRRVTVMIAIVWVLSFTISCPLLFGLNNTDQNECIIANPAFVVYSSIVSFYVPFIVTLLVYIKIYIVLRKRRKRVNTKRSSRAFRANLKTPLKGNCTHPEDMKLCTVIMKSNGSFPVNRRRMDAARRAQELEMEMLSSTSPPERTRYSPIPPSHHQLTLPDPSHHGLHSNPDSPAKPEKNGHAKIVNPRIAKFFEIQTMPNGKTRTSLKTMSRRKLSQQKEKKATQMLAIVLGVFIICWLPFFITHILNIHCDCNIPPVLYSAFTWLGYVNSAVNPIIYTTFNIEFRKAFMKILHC

Turning to `O=S(=O)(NCC1CCN(C[C@H]2COc3ccc(Cl)cc3O2)CC1)c1ccccn1` [Example 1, (S)-(-)-N-{[1-(7-chloro-1,4-benzodioxan-2-ylmethyl)-4-piperidyl]methyl}pyridine-2-sulphonamide monohydrochloride 0.6 hydrate], the inhibition constant (Ki) was found to be 29.4 nM in assay [1] and 86.8 nM at 5-HT1A.
On to `O=S(=O)(c1ccccn1)N1CCC(CNC[C@H]2COc3ccc(Cl)cc3O2)CC1` [Example 2, (S)-(-)-4-[N-(7-chloro-1,4-benzodioxan-2-ylmethyl)aminomethyl]-1-(2-pyridinesulphonyl)piperidine 0.8 hydrate], for which the results for the Ki (in assay [1]; at 5-HT1A) were 27.9 nM and 11.4 nM, respectively.
For the compound `O=S(=O)(NCC1CCN(C[C@H]2COc3ccc(Cl)cc3O2)CC1)c1cccnc1` [Example 3, (S)-(-)-N-{[1-(7-chloro-1,4-benzodioxan-2-ylmethyl)-4-piperidyl]methyl}pyridine-3-sulphonamide 0.8 hydrate], the Ki in assay [1] turned out to be 28 nM; on 5-HT1A, 31.6 nM.
For `O=[N+]([O-])c1ccc(S(=O)(=O)NCC2CCN(C[C@H]3COc4ccc(Cl)cc4O3)CC2)cc1` [Example 4, (S)-(-)-N-{[1-(7-chloro-1,4-benzodioxan-2-ylmethyl)-4-piperidyl]-methyl}-4-nitrobenzenesulphonamide], the Ki in assay [1] was determined as 105 nM; on 5-HT1A, 15 nM.
On to `O=S(=O)(NCC1CCN(C[C@H]2COc3ccc(Cl)cc3O2)CC1)c1ccc(F)cc1` [Example 5, (S)-(-)-N-{[1-(7-chloro-1,4-benzodioxan-2-ylmethyl)-4-piperidyl]methyl}-4-fluorobenzene-sulphonamide], for which the Ki in assay [1] was found to be 69.8 nM; at 5-HT1A it was 37 nM.
`COc1ccc(S(=O)(=O)NCC2CCN(C[C@H]3COc4ccc(Cl)cc4O3)CC2)cc1OC` [Example 6, (S)-(-)-N-{[1-(7-chloro-1,4-benzodioxan-2-ylmethyl)-4-piperidyl]methyl}-3,4-dimethoxybenzenesulphonamide]: the inhibition constant Ki in assay [1] stood at 40.2 nM; at 5-HT1A it was 20 nM.
Turning to `O=S(=O)(NCC1CCN(C[C@H]2COc3ccc(Cl)cc3O2)CC1)c1ccc(F)cc1F` [Example 7, (S)-(-)-N-{[1-(7-chloro-1,4-benzodioxan-2-ylmethyl)-4-piperidyl]methyl}-2,4-difluorobenzenesulphonamide], the values for the Ki (in assay [1]; on 5-HT1A) were 37.8 nM and 35 nM, respectively.
As to `CC(=O)Nc1ccc(S(=O)(=O)NCC2CCN(C[C@H]3COc4ccc(Cl)cc4O3)CC2)cc1` [Example 8, (S)-(-)-4-acetamido-N-{[1-(7-chloro-1,4-benzodioxan-2-ylmethyl)-4-piperidyl]methyl}benzenesulphonamide], the inhibitory constant (Ki) in assay [1] amounted to 37.2 nM; on 5-HT1A, 45 nM.
In the case of `COc1ccc(S(=O)(=O)NCC2CCN(C[C@H]3COc4ccc(Cl)cc4O3)CC2)cc1` [Example 9, (S)-(-)-N-{[1-(7-chloro-1,4-benzodioxan-2-ylmethyl)-4-piperidyl]-methyl}-4-methoxybenzenesulphonamide], the inhibitory constant (Ki) in assay [1] was found to be 96.4 nM; at 5-HT1A, 42 nM.
For the compound `O=S(=O)(NCC1CCN(C[C@H]2COc3ccc(Cl)cc3O2)CC1)c1c(F)cccc1F` [Example 10, (S)-(-)-N-{[1-(7-chloro-1,4-benzodioxan-2-ylmethyl)-4-piperidyl]methyl}-2,6-difluorobenzenesulphonamide], the Ki is 50.1 nM in assay [1] and 7.4 nM at 5-HT1A.
Take `O=S(=O)(NCC1CCN(C[C@H]2COc3ccc(Cl)cc3O2)CC1)c1ccc(Cl)cc1` [Example 11, (S)-(-)-N-{[1-(7-chloro-1,4-benzodioxan-2-ylmethyl)-4-piperidyl]methyl}-4-chlorobenzene-sulphonamide]: the inhibition constant (Ki) was 157 nM in assay [1] and 69 nM at 5-HT1A.
The corresponding values for `O=S(=O)(NCC1CCN(C[C@H]2COc3ccc(C(F)(F)F)cc3O2)CC1)c1ccccn1` [Example 12, (S)-(-)-N-J[1-(7-trifluoromethyl-1,4-benzodioxan-2-ylmethyl)-4-piperidyl]methyl,pyridine-2-sulphonamide] are 28.7 nM and 30 nM.
Regarding `O=S(=O)(NCC1CCN(C[C@H]2COc3ccc(Br)cc3O2)CC1)c1cccc(Cl)c1Cl` [Example 13, (S)-(-)-N-{[1-(7-bromo-1,4-benzodioxan-2-ylmethyl)-4-piperidyl]methyl}-2,3-dichlorobenzensulphonamide], the inhibition constant Ki came out at 102 nM in assay [1] and 20 nM on 5-HT1A.
Take `O=S(=O)(NCC1CCN(C[C@H]2COc3ccc(C(F)(F)F)cc3O2)CC1)c1cccc(Cl)c1Cl` [Example 14, (S)-(-)-2,3-dichloro-N-{[1-(7-trifluoromethyl-1,4-benzodioxan-2-ylmethyl)-4-piperidyl]methyl}benzenesulphonamide]: the inhibition constant (Ki) in assay [1] was 111 nM; on 5-HT1A, 25 nM.
Compound `O=[N+]([O-])c1ccc(S(=O)(=O)NCC2CCN(C[C@H]3COc4ccc(Cl)cc4O3)CC2)c([N+](=O)[O-])c1` [Example 15, (S)-N-{[1-(7-Chloro-1,4-benzodioxan-2-ylmethyl)-4-piperidyl]methyl}-2,4-dinitrobenzenesulphonamide] had a Ki in assay [1] of 212 nM. Besides, on 5-HT1A, the inhibition at 1 µM was 82%.
As for `O=S(=O)(NCC1CCN(C[C@H]2COc3ccc(Cl)cc3O2)CC1)c1cc(OCC(F)(F)F)ccc1OCC(F)(F)F` [Example 16, (S)-N-{[1-(7-Chloro-1,4-benzodioxan-2-ylmethyl)-4-piperidyl]methyl}-2,5-bis(2,2,2-trifluoroethoxy)benzenesulphonamide], affinity in assay [1] was put at a Ki of 258 nM. The inhibition at 1 µM on 5-HT1A was 84%.
The compound `O=S(=O)(NCC1CCN(C[C@H]2COc3ccc(Cl)cc3O2)CC1)c1ccc(C(F)(F)F)cc1Cl` [Example 17, (S)-2-Chloro-N-{[1-(7-chloro-1,4-benzodioxan-2-ylmethyl)-4-piperidyl]methyl}-4-trifluoromethylbenzenesulphonamide] yielded a Ki in assay [1] of 519 nM. The inhibition at 1 µM at 5-HT1A came out at 88%.
As to `O=S(=O)(NCC1CCN(C[C@H]2COc3ccc(Cl)cc3O2)CC1)c1ccc(I)cc1` [Example 18, (S)-N-{[1-(7-Chloro-1,4-benzodioxan-2-ylmethyl)-4-piperidyl]methyl}-4-iodo-benzenesulphonamide], in assay [1], the inhibition constant Ki came to 227 nM. At 5-HT1A, the inhibition at 1 µM came out at 90%.
For `COc1cc(C)c(S(=O)(=O)NCC2CCN(C[C@H]3COc4ccc(Cl)cc4O3)CC2)c(C)c1C` [Example 19, (S)-N-{[1-(7-Chloro-1,4-benzodioxan-2-ylmethyl)-4-piperidyl]methyl}-4-methoxy-2,3,6-trimethylbenzenesulphonamide], in assay [1], the Ki was determined as 306 nM. Moreover, the inhibition at 1 µM on 5-HT1A came to 55%.

A word on the Ki: it is a measure of affinity in units of concentration, obtained from inhibition or displacement. Low readings indicate higher affinity, high ones lower affinity.
